Test results as given in PubChem BioAssay AID248 (DTP/NCI, 2004).
Inconclusive results and toxic doses are left out. No stated cut-off is given here; in the data, active means T/C of 150% or more; inactive means T/C below 125%.

Tested on: L1210 leukemia ip in BDF1 mice, survival T/C
Test: NCI In Vivo Anticancer Drug Screen. Data for tumor model L1210 Leukemia (intraperitoneal) in B6D2F1 (BDF1) mice
Conditions: endpoint: mean survival time, higher = longer survival
Outline: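 Mice bearing the transplanted tumor received compound or vehicle. Survival of the treated group was divided by that of the vehicle-treated control group to give the ratio.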

[1] = dose: 100.0 mg/kg/injection, schedule: Q01DX009 (ip), vehicle: Klucel (hydroxypropylcellulose) (HPC)
[2] = dose: 100.0 mg/kg/injection, schedule: Q04DX002 (ip), vehicle: Klucel (hydroxypropylcellulose) (HPC)
[3] = dose: 200.0 mg/kg/injection, schedule: Q01DX009 (ip), vehicle: Klucel (hydroxypropylcellulose) (HPC)
[4] = dose: 200.0 mg/kg/injection, schedule: Q04DX002 (ip), vehicle: Klucel (hydroxypropylcellulose) (HPC)
[5] = dose: 400.0 mg/kg/injection, schedule: Q01DX009 (ip), vehicle: Klucel (hydroxypropylcellulose) (HPC)
[6] = dose: 400.0 mg/kg/injection, schedule: Q04DX002 (ip), vehicle: Klucel (hydroxypropylcellulose) (HPC)
[7] = dose: 100.0 mg/kg/injection, schedule: Q01DX009 (ip), vehicle: saline
[8] = dose: 100.0 mg/kg/injection, schedule: Q04DX003 (ip), vehicle: saline
[9] = dose: 200.0 mg/kg/injection, schedule: Q04DX003 (ip), vehicle: saline
[10] = dose: 100.0 mg/kg/injection, schedule: Q01DX001 (ip), vehicle: Klucel (hydroxypropylcellulose) (HPC)
[11] = dose: 200.0 mg/kg/injection, schedule: Q01DX001 (ip), vehicle: Klucel (hydroxypropylcellulose) (HPC)
[12] = dose: 400.0 mg/kg/injection, schedule: Q01DX001 (ip), vehicle: Klucel (hydroxypropylcellulose) (HPC)
[13] = dose: 100.0 mg/kg/injection, schedule: Q04DX003 (ip), vehicle: saline with Tween-80
[14] = dose: 200.0 mg/kg/injection, schedule: Q04DX003 (ip), vehicle: saline with Tween-80
[15] = dose: 400.0 mg/kg/injection, schedule: Q04DX003 (ip), vehicle: saline
[16] = dose: 100.0 mg/kg/injection, schedule: Q01DX001 (ip), vehicle: saline
[17] = dose: 200.0 mg/kg/injection, schedule: Q01DX001 (ip), vehicle: saline
[18] = dose: 400.0 mg/kg/injection, schedule: Q01DX001 (ip), vehicle: saline
[19] = dose: 400.0 mg/kg/injection, schedule: Q04DX003 (ip), vehicle: saline with Tween-80
[20] = dose: 75.0 mg/kg/injection, schedule: Q01DX001 (ip), vehicle: saline
[21] = dose: 150.0 mg/kg/injection, schedule: Q01DX001 (ip), vehicle: saline
[22] = dose: 300.0 mg/kg/injection, schedule: Q01DX001 (ip), vehicle: saline

Measured: T/C

NC(=O)Nc1ccccc1
inactive: [1] 103 % of control | [2] 109 % of control | [3] 106 % of control | [4] 109 % of control | [5] 103 % of control | [6] 88 % of control

Cn1c(=O)c2c(nc(Cc3ccc(NC(=O)c4ccc(C(=O)Nc5ccc(Cc6nc7c(c(=O)n(C)c(=O)n7C)n6C)cc5)cc4)cc3)n2C)n(C)c1=O
inactive: dose: 50.0 mg/kg/injection, schedule: Q01DX001 (ip), vehicle: other 97 % of control | dose: 100.0 mg/kg/injection, schedule: Q01DX001 (ip), vehicle: other 94 % of control | dose: 200.0 mg/kg/injection, schedule: Q01DX001 (ip), vehicle: other 94 % of control | dose: 400.0 mg/kg/injection, schedule: Q01DX001 (ip), vehicle: other 92 % of control

O=C(CCl)NCc1cnccn1
inactive: dose: 50.0 mg/kg/injection, schedule: Q01DX009 (ip), vehicle: saline 95 % of control | [7] 107 % of control | [8] 98 % of control | [9] 104 % of control

COc1cc([N+](=O)[O-])cc(OC)c1OC
inactive: [10] 95 % of control | [11] 92 % of control | [12] 97 % of control

CC(CCCO)C1CCC2C3CCC4CC5(CCC4(C)C3CCC12C)OCCO5 (stereo not drawn)
inactive: dose: 100.0 mg/kg/injection, schedule: Q01DX009 (sc), vehicle: steriod suspending solution 104 % of control | dose: 200.0 mg/kg/injection, schedule: Q01DX009 (sc), vehicle: steriod suspending solution 92 % of control | dose: 400.0 mg/kg/injection, schedule: Q01DX009 (sc), vehicle: steriod suspending solution 94 % of control

CCCC(C)(O)C#CC(C)(O)CCC (stereo not drawn)
inactive: dose: 50.0 mg/kg/injection, schedule: Q01DX009 (ip), vehicle: saline with Tween-80 97 % of control | dose: 100.0 mg/kg/injection, schedule: Q01DX009 (ip), vehicle: saline with Tween-80 95 % of control | [13] 100 % of control | dose: 200.0 mg/kg/injection, schedule: Q01DX009 (ip), vehicle: saline with Tween-80 97 % of control | [14] 95 % of control

O=C(O)C1C(C2c3ccc(O)cc3Oc3cc(O)ccc32)C2(Cl)C(Cl)=C(Cl)C1(Cl)C2(Cl)Cl (stereo not drawn)
inactive: [8] 100 % of control | [9] 93 % of control | [15] 94 % of control

CCNC(=O)NC1C(O)OC(CO)C(O)C1O (stereo not drawn)
inactive: [16] 96 % of control | [8] 99 % of control | [17] 103 % of control | [9] 99 % of control | [18] 102 % of control | [15] 95 % of control

COc1ccc(/C=N/NC(=O)c2ccccc2N)cc1
inactive: [2] 98 % of control | [4] 106 % of control | [6] 106 % of control

S=C(C/C=C/CC(=S)SN(c1ccccc1)c1ccccc1)SN(c1ccccc1)c1ccccc1
inactive: [1] 91 % of control | [3] 95 % of control | [5] 90 % of control

Cc1ccc(S(=O)(=O)OCC(=O)O)cc1
inactive: [13] 95 % of control | [14] 95 % of control | [19] 100 % of control

C[C@]12CCC(=O)C=C1CC[C@@H]1[C@@H]2[C@@H](O)C[C@@]2(C)[C@H]1CC[C@]2(O)C(=O)COC(=O)COCC(=O)O
inactive: dose: 100.0 mg/kg/injection, schedule: Q04DX003 (sc), vehicle: Klucel (hydroxypropylcellulose) (HPC) 101 % of control | dose: 200.0 mg/kg/injection, schedule: Q04DX003 (sc), vehicle: Klucel (hydroxypropylcellulose) (HPC) 102 % of control | dose: 400.0 mg/kg/injection, schedule: Q04DX003 (sc), vehicle: Klucel (hydroxypropylcellulose) (HPC) 101 % of control

O=C(O)C12CCCC(CCC1)C2=O
inactive: [20] 100 % of control | [21] 102 % of control | [22] 100 % of control

COC(=O)c1cc(Cl)ccc1OCC(=O)NCc1ccc(Cl)cc1
inactive: [13] 89 % of control | [14] 102 % of control | [19] 88 % of control

CCOC(=O)c1c(C)c(Br)c(O)c(Br)c1O
inactive: [16] 98 % of control | dose: 100.0 mg/kg/injection, schedule: Q04DX003 (ip), vehicle: other 86 % of control | [17] 91 % of control | dose: 200.0 mg/kg/injection, schedule: Q04DX003 (ip), vehicle: other 100 % of control | [18] 103 % of control | dose: 400.0 mg/kg/injection, schedule: Q04DX003 (ip), vehicle: other 106 % of control

CN(C)c1ncnc2c1ncn2Cc1ccccc1
inactive: dose: 100.0 mg/kg/injection, schedule: Q01DX001 (ip), vehicle: saline with Tween-80 92 % of control | dose: 200.0 mg/kg/injection, schedule: Q01DX001 (ip), vehicle: saline with Tween-80 96 % of control

CCc1cccc(CC)c1N1C(=O)CC(Sc2ccccc2N)C1=O (stereo not drawn)
inactive: dose: 100.0 mg/kg/injection, schedule: Q01DX009 (ip), vehicle: gum acacia 93 % of control | dose: 100.0 mg/kg/injection, schedule: Q04DX003 (ip), vehicle: gum acacia 96 % of control | dose: 200.0 mg/kg/injection, schedule: Q01DX009 (ip), vehicle: gum acacia 91 % of control | dose: 200.0 mg/kg/injection, schedule: Q04DX003 (ip), vehicle: gum acacia 91 % of control | dose: 400.0 mg/kg/injection, schedule: Q01DX009 (ip), vehicle: gum acacia 98 % of control | dose: 400.0 mg/kg/injection, schedule: Q04DX003 (ip), vehicle: gum acacia 100 % of control

CC(=O)Nc1ccc(S(=O)(=O)CO)cc1
inactive: [10] 102 % of control | [11] 102 % of control | [12] 102 % of control

C(/C=C/C=C/Nc1ccc(N=Nc2ccccc2)cc1)=Nc1ccc(N=Nc2ccccc2)cc1
inactive: dose: 100.0 mg/kg/injection, schedule: Q01DX009 (ip), vehicle: saline sonified 94 % of control | dose: 100.0 mg/kg/injection, schedule: Q04DX003 (ip), vehicle: saline sonified 94 % of control | dose: 200.0 mg/kg/injection, schedule: Q01DX009 (ip), vehicle: saline sonified 94 % of control | dose: 200.0 mg/kg/injection, schedule: Q04DX003 (ip), vehicle: saline sonified 93 % of control | dose: 400.0 mg/kg/injection, schedule: Q04DX003 (ip), vehicle: saline sonified 91 % of control

O=S1(=O)CC2(N3CCCC3)CCCCC21 (stereo not drawn)
inactive: [20] 98 % of control | [21] 100 % of control | [22] 100 % of control

CCOC(=O)c1cccc2cccc(C(=O)OCC)c12
inactive: dose: 50.0 mg/kg/injection, schedule: Q01DX001 (ip), vehicle: carboxymethylcellulose (CMC) 97 % of control | dose: 100.0 mg/kg/injection, schedule: Q01DX001 (ip), vehicle: carboxymethylcellulose (CMC) 101 % of control | dose: 200.0 mg/kg/injection, schedule: Q01DX001 (ip), vehicle: carboxymethylcellulose (CMC) 101 % of control | dose: 400.0 mg/kg/injection, schedule: Q01DX001 (ip), vehicle: carboxymethylcellulose (CMC) 97 % of control

CSCCCN
inactive: [7] 99 % of control | [8] 102 % of control | dose: 200.0 mg/kg/injection, schedule: Q01DX009 (ip), vehicle: saline 95 % of control | [9] 104 % of control | dose: 400.0 mg/kg/injection, schedule: Q01DX009 (ip), vehicle: saline 95 % of control | [15] 96 % of control

COCCNC(=O)SCCC(=O)O
inactive: [16] 96 % of control | [17] 100 % of control | [18] 100 % of control

O=[N+]([O-])c1cc(C(F)(F)F)ccc1/C=C/c1ccccc1Br
inactive: [13] 105 % of control | [14] 97 % of control | [19] 101 % of control

NC(=O)c1c2n(c3ncnc(N)c13)C1OC(CO)C(O)C1S2 (stereo not drawn)
inactive: dose: 25.0 mg/kg/injection, schedule: Q01DX009 (ip), vehicle: water 91 % of control | dose: 50.0 mg/kg/injection, schedule: Q01DX009 (ip), vehicle: water 91 % of control

O=C(Nc1ccccc1Cl)N1CCOCC1
inactive: [2] 106 % of control | [4] 103 % of control | [6] 87 % of control
